Reference: ChEMBL document CHEMBL4229327, “Chemical Approaches to Modulating Complement-Mediated Diseases” (J Med Chem, 2018)
Bridge positions count the residues as written; N and C are the ends. Peptide text beside a SMILES is read from it.

Columns and labels:
[1] = biological target: T1, Complement C1s subcomponent (Homo sapiens, UniProt P09871); test: Inhibition of C1s (unknown origin) using Cbz-Gly-Arg-S-Bzl as substrate preincubated with substrate for 15 mins followed by enzyme addition and measured after 5 mins
T1 sequence (P09871 whole entry): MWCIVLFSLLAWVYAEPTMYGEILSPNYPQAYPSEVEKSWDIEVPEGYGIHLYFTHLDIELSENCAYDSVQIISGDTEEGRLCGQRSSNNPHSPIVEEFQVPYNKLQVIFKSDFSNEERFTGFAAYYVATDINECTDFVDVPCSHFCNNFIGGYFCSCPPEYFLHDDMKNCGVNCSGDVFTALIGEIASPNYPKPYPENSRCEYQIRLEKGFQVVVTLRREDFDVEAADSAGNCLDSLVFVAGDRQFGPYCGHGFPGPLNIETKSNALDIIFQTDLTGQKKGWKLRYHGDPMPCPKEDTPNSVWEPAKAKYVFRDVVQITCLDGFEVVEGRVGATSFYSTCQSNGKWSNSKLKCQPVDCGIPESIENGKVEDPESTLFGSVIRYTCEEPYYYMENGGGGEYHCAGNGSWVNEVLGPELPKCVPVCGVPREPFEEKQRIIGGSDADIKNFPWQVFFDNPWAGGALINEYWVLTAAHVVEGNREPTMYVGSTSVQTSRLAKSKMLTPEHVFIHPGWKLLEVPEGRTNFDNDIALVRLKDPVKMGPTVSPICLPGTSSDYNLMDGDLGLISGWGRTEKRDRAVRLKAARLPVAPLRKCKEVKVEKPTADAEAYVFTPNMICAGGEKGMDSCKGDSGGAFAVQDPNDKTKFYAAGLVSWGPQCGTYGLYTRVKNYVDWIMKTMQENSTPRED

[2] = Inhibition of guinea pig C1q-mediated sheep RBC lysis; set-up: species or system Cavia porcellus
[3] = Binding affinity to C1q (unknown origin) by SPR method; set-up: species or system Homo sapiens
[4] = biological target: T2, Complement C1r subcomponent (Homo sapiens, UniProt P00736); test: Inhibition of human plasma C1r using Cbz-Gly-Arg-S-Bzl as substrate preincubated for 10 mins followed by substrate addition and measured after 30 mins by DTNB reagent-based two-beam microtiter plate photometer
T2 sequence (P00736 whole entry): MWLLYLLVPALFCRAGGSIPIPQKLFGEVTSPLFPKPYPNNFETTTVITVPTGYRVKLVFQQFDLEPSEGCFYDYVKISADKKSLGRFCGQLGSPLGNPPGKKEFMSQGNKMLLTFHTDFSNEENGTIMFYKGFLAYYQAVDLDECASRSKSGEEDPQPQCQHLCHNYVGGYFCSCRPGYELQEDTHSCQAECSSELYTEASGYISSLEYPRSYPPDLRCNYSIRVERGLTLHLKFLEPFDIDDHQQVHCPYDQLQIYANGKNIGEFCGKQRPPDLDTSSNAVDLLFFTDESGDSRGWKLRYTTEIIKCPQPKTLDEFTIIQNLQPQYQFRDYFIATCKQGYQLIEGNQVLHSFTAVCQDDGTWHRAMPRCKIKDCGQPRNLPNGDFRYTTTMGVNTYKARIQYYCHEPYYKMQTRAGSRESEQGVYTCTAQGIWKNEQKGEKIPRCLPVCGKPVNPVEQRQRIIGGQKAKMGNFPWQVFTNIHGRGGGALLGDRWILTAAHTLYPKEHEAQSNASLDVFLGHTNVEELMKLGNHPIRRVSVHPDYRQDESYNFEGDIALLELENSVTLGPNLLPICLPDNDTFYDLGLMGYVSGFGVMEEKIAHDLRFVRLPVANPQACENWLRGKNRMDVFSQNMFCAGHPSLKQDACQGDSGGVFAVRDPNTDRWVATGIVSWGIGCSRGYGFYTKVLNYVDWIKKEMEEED

[5] = biological target: T1, Complement C1s subcomponent; test: Inhibition of human plasma C1s using Cbz-Gly-Arg-S-Bzl as substrate preincubated for 10 mins followed by substrate addition and measured after 30 mins by DTNB reagent-based two-beam microtiter plate photometer
[6] = biological target: T3, Mannan-binding lectin serine protease 1 (Homo sapiens, UniProt P48740); test: Inhibition of MASP-1-mediated C3 deposition in human serum after 30 mins by ELISA
T3 sequence (P48740 whole entry): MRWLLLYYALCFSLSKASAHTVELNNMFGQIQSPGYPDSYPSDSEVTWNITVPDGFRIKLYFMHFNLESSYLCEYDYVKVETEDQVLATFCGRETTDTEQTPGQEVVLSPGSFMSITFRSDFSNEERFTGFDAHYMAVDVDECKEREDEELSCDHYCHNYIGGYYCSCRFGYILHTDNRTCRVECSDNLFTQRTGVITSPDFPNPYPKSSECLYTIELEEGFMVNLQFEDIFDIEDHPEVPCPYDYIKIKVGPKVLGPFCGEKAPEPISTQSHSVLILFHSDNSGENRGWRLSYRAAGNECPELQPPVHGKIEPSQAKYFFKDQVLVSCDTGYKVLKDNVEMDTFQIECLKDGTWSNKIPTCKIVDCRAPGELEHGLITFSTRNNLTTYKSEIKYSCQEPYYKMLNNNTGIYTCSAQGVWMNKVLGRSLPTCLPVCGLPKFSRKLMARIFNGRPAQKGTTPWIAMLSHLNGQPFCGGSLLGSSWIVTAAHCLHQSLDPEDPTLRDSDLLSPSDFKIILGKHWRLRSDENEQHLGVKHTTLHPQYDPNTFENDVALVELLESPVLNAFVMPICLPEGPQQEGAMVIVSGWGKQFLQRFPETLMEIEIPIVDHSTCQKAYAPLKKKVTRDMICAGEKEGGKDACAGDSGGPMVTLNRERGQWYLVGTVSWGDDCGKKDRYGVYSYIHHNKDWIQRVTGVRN

[7] = biological target: T4, Mannan-binding lectin serine protease 2 (Homo sapiens, UniProt O00187); test: Inhibition of MASP-2-mediated C4 deposition in human serum after 1 hr by ELISA
T4 sequence (O00187 16-444 limits assumed): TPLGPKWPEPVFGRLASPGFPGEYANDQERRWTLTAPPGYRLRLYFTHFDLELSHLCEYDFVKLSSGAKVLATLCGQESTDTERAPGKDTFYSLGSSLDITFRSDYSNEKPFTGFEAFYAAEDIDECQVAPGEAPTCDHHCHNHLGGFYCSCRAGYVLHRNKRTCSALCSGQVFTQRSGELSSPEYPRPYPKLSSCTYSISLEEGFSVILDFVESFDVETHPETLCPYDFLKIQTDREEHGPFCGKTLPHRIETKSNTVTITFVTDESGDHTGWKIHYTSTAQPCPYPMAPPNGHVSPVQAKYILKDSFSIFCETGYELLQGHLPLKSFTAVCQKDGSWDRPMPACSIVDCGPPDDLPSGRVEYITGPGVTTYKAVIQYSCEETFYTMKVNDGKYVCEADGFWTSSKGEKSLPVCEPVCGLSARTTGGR
T4 sequence (O00187 445-686 limits assumed): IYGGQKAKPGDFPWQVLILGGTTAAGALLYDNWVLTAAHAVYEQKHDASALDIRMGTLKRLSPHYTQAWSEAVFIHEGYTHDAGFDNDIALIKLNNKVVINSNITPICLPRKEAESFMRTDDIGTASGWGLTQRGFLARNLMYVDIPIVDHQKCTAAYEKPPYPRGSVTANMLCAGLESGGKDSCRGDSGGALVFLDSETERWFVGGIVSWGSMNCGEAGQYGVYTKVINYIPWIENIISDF

[8] = biological target: T4, Mannan-binding lectin serine protease 2; test: Inhibition of MASP-2 (unknown origin) using Z-L-LysSBzl hydrochloride as substrate preincubated for 1 hr followed by substrate addition
[9] = biological target: T3, Mannan-binding lectin serine protease 1; test: Inhibition of MASP-1 (unknown origin) using Z-L-LysSBzl hydrochloride as substrate preincubated for 1 hr followed by substrate addition
[10] = biological target: T3, Mannan-binding lectin serine protease 1; test: Inhibition of recombinant […] fragment of MASP-1 (unknown origin)
[11] = biological target: T3, Mannan-binding lectin serine protease 1; test: Inhibition of MASP1 (unknown origin)-induced lectin pathway by ELISA
[12] = Inhibition of human plasma C1q-mediated rabbit RBC lysis after 60 mins
[13] = Inhibition of chimpanzee serum C1q-mediated rabbit RBC lysis after 60 mins; set-up: species or system Pan troglodytes
[14] = Inhibition of rhesus monkey serum C1q-mediated rabbit RBC lysis after 60 mins; set-up: species or system Macaca mulatta
[15] = Inhibition of rat serum C1q-mediated rabbit RBC lysis after 60 mins
[16] = Inhibition of mouse serum C1q-mediated rabbit RBC lysis after 60 mins
[17] = Inhibition of bovine trypsin esterolytic activity using Na-benzoyl-L-Arg-nitroanalide as substrate; set-up: species or system Bos taurus
[18] = Inhibition of rat serum alternative complement system-mediated lysis of guinea pig erythrocytes
[19] = Selectivity ratio of IC50 for rat serum alternative complement system-mediated lysis of guinea pig erythrocytes to IC50 for human serum C1s-mediated lysis of rabbit Ab-sensitized sheep erythrocytes after 60 mins
[20] = biological target: T2, Complement C1r subcomponent; test: Inhibition of human serum C1r using AAME as substrate after 30 mins
[21] = biological target: T1, Complement C1s subcomponent; test: Inhibition of human serum C1s using AGLME as substrate after 30 mins

Compound: CSc1sc(C(=N)N)cc1-c1nc(-c2cccc(NS(=O)(=O)c3ccc(F)cc3F)c2)cs1
- Ki [1]: 30 nM

Compound: CC(=O)N[C@@H](C)C(=O)N[C@@H](CCC(=O)O)C(=O)N[C@@H](C)C(=O)N[C@@H](CCCCN)C(=O)N[C@@H](C)C(=O)N[C@@H](CCCCN)C(=O)N[C@@H](C)C(N)=O (Ac-AEAKAKA-NH2)
- IC50 [2]: 166000 nM

Compound: CC[C@H](C)[C@H](N)C(=O)N[C@@H](C)C(=O)N[C@@H](CC(C)C)C(=O)N[C@H](C(=O)N[C@@H](CC(C)C)C(=O)N[C@@H](CCC(=O)O)C(=O)N1CCC[C@H]1C(=O)N[C@H](C(=O)N[C@@H](CS)C(=O)N[C@@H](CS)C(=O)N[C@@H](CCC(N)=O)C(=O)N[C@@H](CCC(=O)O)C(=O)N[C@@H](CCCNC(=N)N)C(=O)N[C@@H](C)C(=O)N[C@@H](C)C(=O)O)[C@@H](C)CC)[C@@H](C)CC
- Kd [3]: 33 nM

Compound: CC(C)[C@@H](NC(=O)Cc1c(Cl)cccc1Cl)C(=O)N1CC=CC1C(=O)NCc1ccc(C(=N)N)s1 (stereo partly specified)
- IC50 [4]: 600 nM
- IC50 [5]: 900 nM

Compound: CC[C@H](C)[C@H](NC(=O)CN)C(=O)N[C@@H](CS)C(=O)N[C@@H](CO)C(=O)N[C@@H](CCCNC(=N)N)C(=O)N[C@@H](CO)C(=O)N[C@@H](CC(C)C)C(=O)N1CCC[C@H]1C(=O)N1CCC[C@H]1C(=O)N[C@H](C(=O)N[C@@H](CS)C(=O)N[C@H](C(=O)N1CCC[C@H]1C(=O)N[C@@H](CC(=O)O)C(=O)O)[C@@H](C)CC)[C@@H](C)CC (H-GICSRSLPPICIPD-OH)
- IC50 [6]: 40 nM
- IC50 [7]: 230 nM
- Ki [8]: 1030 nM
- Ki [9]: 65 nM

Compound: CC(C)C[C@H](NC(=O)[C@H](CCCCN)NC(=O)[C@H](CCCNC(=N)N)NC(=O)[C@@H](NC(=O)[C@H](CS)NC(=O)[C@H](Cc1ccccc1)NC(=O)[C@H](C)NC(=O)[C@H](CO)NC(=O)[C@H](CCCCN)NC(=O)CNC(=O)[C@H](CC(=O)O)NC(=O)[C@H](CO)NC(=O)CNC(=O)[C@H](CS)NC(=O)[C@H](CCCNC(=N)N)NC(=O)[C@H](CS)NC(=O)[C@@H](NC(=O)[C@H](CC(N)=O)NC(=O)[C@H](CS)NC(=O)[C@H](CCCCN)NC(=O)[C@H](CC(=O)O)NC(=O)[C@H](CCCCN)NC(=O)[C@H](Cc1ccccc1)NC(=O)[C@@H](NC(=O)[C@@H](NC(=O)CNC(=O)[C@@H]1CCCN1C(=O)[C@H](CCC(=O)O)NC(=O)[C@H](CS)NC(=O)[C@@H](NC(=O)[C@@H](N)C(C)C)[C@@H](C)O)[C@@H](C)O)[C@@H](C)O)[C@@H](C)O)[C@@H](C)O)C(=O)N[C@@H](CS)C(=O)N[C@@H](Cc1ccc(O)cc1)C(=O)N[C@@H](CCC(N)=O)C(=O)O (H-VTCEPGTTFKDKCNTCRCGSDGKSAFCTRKLCYQ-OH)
- Ki [10]: 7 nM
- IC50 [11]: 42 nM

Compound: CC(C)C[C@@H]1NC(=O)[C@H](CC(=O)O)NC(=O)[C@H](Cc2c[nH]cn2)NC(=O)[C@H](CCCNC(=N)N)NC(=O)[C@@H]2CCCN2C(=O)CNC(=O)[C@H](Cc2ccccc2)NC(=O)[C@@H]2CCCN2C(=O)CNC(=O)[C@H](CCC(=O)O)NC(=O)[C@@H](N)CSSC[C@@H](C(=O)N[C@@H](Cc2c[nH]c3ccccc23)C(=O)O)NC(=O)[C@H](Cc2ccccc2)NC(=O)[C@H]([C@@H](C)O)NC1=O (H-CEGPFGPRHDLTFCW-OH; disulfide 1-14)
- IC50 [12]: 2000 nM
- IC50 [13]: 2000 to 6000 nM
- IC50 [14]: 2000 to 6000 nM
- IC50 [15]: 2000 to 6000 nM
- IC50 [16]: 2000 to 6000 nM

Compound: N=C(N)c1cc2ccc(OC(=O)c3cccs3)cc2s1
- IC50 [17]: 326 nM
- IC50 [18]: 330 nM
- Ratio IC50 [19]: 7

Compound: N=C(N)c1ccc2cc(OC(=O)c3ccc(N=C(N)N)cc3)ccc2c1 [NAFAMOSTAT]
- IC50 [20]: 800 nM
- IC50 [21]: 29 nM
